Patent US20100184603A1, “Alcohol alkoxylates, compositions containing these, and use of the alcohol alkoxylates as adjuvants for the agrochemical field” (BASF SE, priority 2007, published 2010)

Test system: leaf rust of wheat "Puccinia recondita"
Experiment: Biotest: curative control of leaf rust of wheat
Format: in vivo
Details: wheat seedlings "Kanzler", curative spray 2 days after inoculation; 50 ppm epoxiconazole without adjuvant; disease percent of total leaf area after 10 days
Protocol: 125 g/l epoxiconazole were ground together with in each case 20 g/l dispersant (Atlas G 5000^1, Synperonic A^1) and 50 g/l propylene glycol in aqueous medium in a stirred-ball mill (dyno-mill) until a particle size of 80%<2 μm was reached. To the mixture were added 3 g/l per liter antifoam, for example Rhodorsil 426^2, 3 g/l thickener, for example Rhodopol 23^2, and a biocide, for example Acticide MBS^3. The respective adjuvant, in aqueous solution or in a solvent, for example Solvesso, was stirred into this mixture, so that the final concentration of the formulation is composed of 62.5 g/l epoxiconazole and 125 g/l adjuvant. ^1Uniquema/Croda^2Rhodia^3Thor Chemie
Biotest (Curative Control of Leaf Rust of Wheat):
Leaves of wheat seedlings of the species “Kanzler” which had been grown in pots were dusted, in the two-leaf stage, with spores of leaf rust of wheat “Puccinia recondita” and incubated for 2 days in the greenhouse at high atmospheric humidity. In fully automated spray cabins, the plants were then sprayed with the formulations which comprised the active ingredients and adjuvants specified hereinbelow. The spray mixtures comprised 50 ppm epoxiconazole and 100 ppm adjuvant. […] After 10 days, the extent of the leaf rust disease was determined visually as disease percent of the total leaf area. 3 pots were evaluated for each combination.

SMILES: Fc1ccc([C@]2(Cn3cncn3)O[C@H]2c2ccccc2Cl)cc1 (racemic) [Epoxiconazole]
- % infection: 40%
